Values quoted from earlier work in patent publication US11406849B2, “Amino alcohol-containing skin cleansing composition for removing keratotic plugs from skin” (KAO CORPORATION, priority 2017, dated 2022).

Solubility in water | Structure (SMILES)
readily dissolved in water | NC(CO)(CO)CO [Component (X1), 2-amino-2-hydroxymethyl-1,3-propanediol]
readily dissolved in water | CC(C)(N)CO [Component (X2), 2-amino-2-methyl-1-propanol]
